From EP3434255A1, “IONTOPHORESIS METHOD, COMPOSITION AND KIT FOR DELIVERING N-ACETYL-3-TRIFLUOROMETHYL-PHENYL-(VALINE-GLYCINE) THROUGH THE SKIN” (priority 2017, dated 2019)

What was measured:
pKa of the active agent = type: physicochemical
[1] = test system: Dermatomed porcine ear skin; type: in vitro ADME; conditions: 1 % w/v in HEPES buffer (pH 7.15) containing 25 mM sodium chloride
Experimental: Untreated porcine ears were procured from a local slaughter house. Dorsal side of the porcine ears was used for the study.. For study #4, dermatomed porcine skin was prepared by dermatoming full thickness skin using Dermatome 75 mm (Nouvag AG TCM 3000, Goldach, Switzerland).
Dermatome is a surgical instrument used to produce thin slices of skin. Dermatoming is refering to the procedure to produce thin layers of the skin by using such device.
In vitro permeation study was performed using Franz diffusion cells (PermeGear V6 station vertical cell). These models contain 6 diffusion cells in each console with 5 ml receptor volume and 9 mm orifice. The diffusion area was 0.64 cm^2.
After washing the cells, receptor solution was left overnight and replaced with fresh sodium chloride solution (0.9 % w/v), 30 minutes prior to mounting the skin. The receptor chamber temperature was maintained at 37°C by the built-in water circulation jacket so as to attain the skin temperature of 32°C.
Skin pieces were then mounted between the donor and receptor compartment (containing 0.9 % (w/v) sodium chloride solution) of Franz diffusion cells with the stratum corneum facing towards the donor side.
The formulation (160 mg formulation containing 1.6 mg active/0.64 sq.cm) was applied in the donor chamber using a positive displacement pipette (Rainin PosD). Simplex formulation was applied in the donor chamber. The donor compartment was left open to mimic in vivo conditions. Six replicates (with the exception of preliminary study 4) were performed for each formulation for each test group (iontophoresis and corresponding passive control - "no current" group) as specified in Table 1 as follows. In the Table 1, the "active agent" is N-acetyl-3-trifluoromethyl-phenyl-(valine-glycine).
Current (0.2 mA/sq.) was applied using silver/silver chloride electrode system and a constant current source (Keithley®; Keithley Instruments, Cleveland, OH, USA). […] Current application was monitored with a chronometer. […]
Receptor samples were taken after stopping the current for the defined duration, which was 20 min in all the studies except study #4, in which sampling was performed at 5, 10, 20, 60, 120, and 240 min. […] The receptor samples were filtered and quantified with methanol calibration using LCMS.
All samples were analyzed by a validated LCMS method which was performed on an Agilent 6410 Triple Quad System to determine how much of the cosmetic agent passed into and through the skin.
Results of the studies were plotted as average amount of active permeated in receptor, quantity of the active in tape strips, and underlying skin for each test group (passive or iontophoresis treatment group). […]

CC(=O)N(c1cccc(C(F)(F)F)c1)C(C(=O)NCC(=O)O)C(C)C (centres unmarked) [active agent, N-acetyl-3-trifluoromethyl-phenyl-(valine-glycine)]
pKa (pKa of the active agent): 3.3 | average cumulative amount of active delivered after 20 min ([1]; anodal iontophoresis 0.2 mA/sq.cm compared with passive and cathodal iontophoresis, p<0.05): significantly higher | permeation of the active agent through dermatomed porcine skin over 4 h study duration ([1]; anodal iontophoresis 0.2 mA/sq.cm for 2 h compared with passive and cathodal iontophoresis, p<0.05): significantly enhance | cumulative active permeation after 20 min ([1]; cathodal iontophoresis 0.2 mA/sq.cm compared with passive, p>0.05): no significant difference | cumulative active permeation after 4 h ([1]; cathodal iontophoresis 0.2 mA/sq.cm for 2 h compared with passive, p>0.05): no significant difference
